According to ChEMBL document CHEMBL1806406, “Antiplasmodial and cytotoxicity evaluation of 3-functionalized 2-azetidinone derivatives” (Bioorg Med Chem Lett, 2011):
One block for each compound: values may come before it.

What was measured:
[1] = test system: Plasmodium falciparum; experiment: Antiplasmodial activity against chloroquine-sensitive Plasmodium falciparum D10; type: functional, organism-based
[2] = test system: KB; experiment: Cytotoxicity against human KB cells assessed as growth inhibition; type: functional, cell-based
[3] = test system: KB; experiment: Cytotoxicity against human KB cells assessed as growth inhibition at 10 uM; type: functional; conditions: read-out: GI
[4] = test system: Plasmodium falciparum; experiment: Antiplasmodial activity against chloroquine-resistant Plasmodium falciparum K1; type: functional, organism-based
[5] = test system: Plasmodium falciparum; experiment: Antiplasmodial activity against chloroquine-sensitive Plasmodium falciparum 3D7; type: functional, organism-based
[6] = test system: KB; experiment: Cytotoxicity against human KB cells assessed as growth inhibition at 100 uM; type: functional; conditions: read-out: GI
[7] = test system: Plasmodium falciparum; experiment: Antiplasmodial activity against chloroquine-resistant Plasmodium falciparum W2; type: functional, organism-based
[8] = test system: KB; experiment: Cytotoxicity against human KB cells assessed as growth inhibition at 0.5 uM; type: functional; conditions: read-out: GI

SMILES: COC(=O)c1nnn([C@@H]2C(=O)N(c3ccc(Cl)cc3)[C@@H]2/C=C/c2ccccc2)c1C(=O)OC
IC50 [2]: 145 µM | inhibition of growth at 10 µM [3]: 19.5% | IC50 [4]: 12.3 µM | IC50 [5]: 25.1 µM | inhibition of growth at 100 µM [6]: 56.5% | IC50 [7]: > 20 µM

SMILES: O=C1[C@@H](n2cc(-c3ccccc3)nn2)[C@@H](/C=C/c2ccccc2)N1c1ccccc1
IC50 [2]: 91.2 µM | inhibition of growth at 10 µM [3]: 10% | IC50 [4]: > 51 µM | IC50 [5]: > 51 µM | inhibition of growth at 100 µM [6]: 58.3% | IC50 [7]: 11.7 µM

SMILES: COC(=O)c1nnn([C@@H]2C(=O)N(C3CCCCC3)[C@@H]2/C=C/c2ccccc2)c1C(=O)OC
IC50 [2]: > 228 µM | inhibition of growth at 10 µM [3]: -7.7% | IC50 [4]: > 45.7 µM | IC50 [5]: > 45.7 µM | inhibition of growth at 100 µM [6]: 8.07% | IC50 [7]: > 20 µM

SMILES: CCN(CC)CCCC(C)Nc1ccnc2cc(Cl)ccc12 (stereo unspecified) [CHLOROQUINE]
IC50 [2]: 36 µM | inhibition of growth at 10 µM [3]: 31.4% | inhibition of growth at 100 µM [6]: 97%

SMILES: O=C1[C@@H](n2cc(-c3ccccc3)nn2)[C@@H](/C=C/c2ccccc2)N1c1ccc(Cl)cc1
IC50 [2]: 84.2 µM | inhibition of growth at 10 µM [3]: 16.8% | IC50 [4]: 7.09 µM | IC50 [5]: 7.86 µM | inhibition of growth at 100 µM [6]: 79.3% | IC50 [7]: 1 µM

SMILES: Cc1ccc(N2C(=O)[C@@H](n3cc(-c4ccccc4)nn3)[C@H]2/C=C/c2ccccc2)cc1
IC50 [2]: 89.2 µM | inhibition of growth at 10 µM [3]: 14.7% | IC50 [4]: 3.42 µM | IC50 [5]: 12 µM | inhibition of growth at 100 µM [6]: 80.8% | IC50 [7]: 1 µM

SMILES: COC(=O)c1nnn([C@@H]2C(=O)N(c3ccc(C)cc3)[C@@H]2/C=C/c2ccccc2)c1C(=O)OC
IC50 [7]: > 20 µM

SMILES: COc1cc([C@@H]2c3cc4c(cc3[C@H](O)[C@H]3COC(=O)[C@H]23)OCO4)cc(OC)c1OC [PODOFILOX]
IC50 [2]: 0.0005 µM | inhibition of growth at 0.5 µM [8]: 81.5%

SMILES: O=C1[C@@H](n2cc(-c3ccccc3)nn2)[C@@H](/C=C/c2ccccc2)N1C1CCCCC1
IC50 [2]: 8.36 µM | inhibition of growth at 10 µM [3]: 76.8% | IC50 [4]: 1.21 µM | IC50 [5]: 1.13 µM | inhibition of growth at 100 µM [6]: 99.7% | IC50 [7]: 1 µM

Further lines, results first:

IC50 [1]: 10.3 µM
SMILES: [N-]=[N+]=N[C@@H]1C(=O)N(c2ccccc2)[C@@H]1/C=C/c1ccccc1

IC50 [1]: 18.6 µM
SMILES: N[C@@H]1C(=O)N(C2CCCCC2)[C@@H]1/C=C/c1ccccc1

IC50 [1]: 29.3 µM
SMILES: N[C@@H]1C(=O)N(c2ccccc2)[C@@H]1/C=C/c1ccccc1

IC50 [1]: 4.7 µM
SMILES: [N-]=[N+]=N[C@@H]1C(=O)N(Cc2ccccc2)[C@@H]1/C=C/c1ccccc1

IC50 [1]: 5.83 µM
SMILES: Cc1ccc(N2C(=O)[C@@H](N=[N+]=[N-])[C@H]2/C=C/c2ccccc2)cc1

IC50 [1]: 2.36 µM
SMILES: [N-]=[N+]=N[C@@H]1C(=O)N(C2CCCCC2)[C@@H]1/C=C/c1ccccc1

IC50 [1]: 59.9 µM
SMILES: Cc1ccc(N2C(=O)[C@@H](N)[C@H]2/C=C/c2ccccc2)cc1

IC50 [1]: 38.1 µM
SMILES: N[C@@H]1C(=O)N(c2ccc(Cl)cc2)[C@@H]1/C=C/c1ccccc1

IC50 [1]: 4.47 µM
SMILES: [N-]=[N+]=N[C@@H]1C(=O)N(c2ccc(Cl)cc2)[C@@H]1/C=C/c1ccccc1
